{"source": "patent US20250204530A1", "about": "“USE OF CAROTENIOD COMPOSITION FOR NEMATODE CONTROL” (IDAI NATURE, S.L., priority 2022, published 2025)", "tested_on": "Phytopathogenic nematodes (Helicotylenchus and Hemicycliophora)", "test": "NEPOT test in soil pots: full formulation, co-formulants, lutein alone (Example 14)", "assay_type": "in vivo", "settings": "20 mL/pot, 7 DAA; for number of nematodes in soil (living individuals, Baermann): 320 individuals per pot", "description": "The purpose of this test was to evaluate the efficacy of the products coded as P1, P2 and P3 of the company IDAI NATURE against a mixture of phytopathogenic nematodes by the company NEVAL.\nThis study evaluates the behaviour under controlled conditions, in soil (NEPOT test)* of a battery of products against a mixture of phytopathogenic nematodes.\nThis study consists of 3 compositions, each of them at 2 doses and a control without treatment.\nThe juveniles were obtained from a freshly extracted sample of roots of sports lawns.\nIt is based on pots or glasses with the right amount of 100 mL for a quantification per sample.\n• Product 1: N-09-04—Full formulation • Product 2: Co-formulant package (without A.I.)—(sunflower oil+tensioactives polysorbates 20, 80 and 85+butyl glycol+TBHQ+water) • Product 3: The Active ingredient alone—Lutein\nThe trial was carried out laboratory in Xilxes—Castelon—Spain—under controlled conditions and plant pathogenic nematodes in soil in a volume of 100 mL per pot. The three replicates per treatment were worked in 100 mL pots of soil with 320 plant pathogenic nematodes in each pot. • Pest: Phytopathogenic nematodes (Helicotylenchus and Hemicycliophora) • Innoculum quantity: 320 individuals per experimental unit • Substract: Sandy soil • Application: Manual—20 mL/pot • Design: Randomized Complete Block (RCB)—3 replicates per treatment • Equipment: Manual application: with micropipette and MAT 09.1 balance • Application code: A=28/06/2021—preparation+application A • Extraction=05/07/2021 (7 DAA according Baermann) • Quantification=06/07/2021\nProducts 1 (N-09-04 full formulation) and product 2 (the full formulation without the Lutein) were mixed with water, while product 3 (Lutein alone—active ingredient), difficult miscibility was deposited on the ground, adding the water later and mixing everything in the soil with a teaspoon shaking for 30 seconds each replica.\nAfter the study carried out under laboratory conditions, each of the soil samples was extracted using the Baermann funnel procedure for 24 hours and then quantified under a biological microscope.\nThe Baermann procedure has the particular option of extracting only those individuals that have mobility, that is, that are alive, so the result is extrapolated to living individuals.", "data": [{"smiles": "CC1=C[C@H](O)CC(C)(C)[C@H]1/C=C/C(C)=C/C=C/C(C)=C/C=C/C=C(C)/C=C/C=C(C)/C=C/C1=C(C)C[C@@H](O)CC1(C)C", "note": "[Product 3, Lutein]", "values": [{"measurement": "efficacy / control (in brackets)", "setting": "0.375 mL/L", "value": 78.4, "unit": "%"}, {"measurement": "number of nematodes in soil (living individuals, Baermann)", "setting": "0.375 mL/L", "value": 68.0}, {"measurement": "efficacy / control (in brackets)", "setting": "0.563 ml/L", "value": 77.5, "unit": "%"}, {"measurement": "number of nematodes in soil (living individuals, Baermann)", "setting": "0.563 ml/L", "value": 71.0}, {"measurement": "efficacy / control (in brackets)", "setting": "5 ml/L", "value": 4.2, "unit": "%"}, {"measurement": "efficacy / control (in brackets)", "setting": "7.5 ml/L", "value": 40.8, "unit": "%"}]}]}
